Oligonucleotides are given in HELM: sugar(base)linkage, 5' to 3'; d 2'-deoxyribose, r ribose, m 2'-O-methylribose, p phosphate. ss, as = sense and antisense strand
Also: test concentration or dose not given here.

This data set has as its target Mmp7 (rat). Put plainly: reporter assay of Huesken 2005. To be noted: siRNA. For orientation: Reporter assays use an easily measured gene product as a stand-in for the process of interest.
Turning to “RNA1{r(A)p.r(A)p.r(A)p.r(A)p.r(C)p.r(A)p.r(A)p.r(A)p.r(G)p.r(A)p.r(A)p.r(G)p.r(G)p.r(C)p.r(C)p.r(A)p.r(C)p.r(C)p.r(A)p.d(T)p.d(T)}|RNA2{r(U)p.r(G)p.r(G)p.r(U)p.r(G)p.r(G)p.r(C)p.r(C)p.r(U)p.r(U)p.r(C)p.r(U)p.r(U)p.r(U)p.r(G)p.r(U)p.r(U)p.r(U)p.r(U)p.d(A)p.d(G)}$$$RNA1{StrandType:ss}|RNA2{StrandType:as}$”, the normalised inhibition (eCFP-eYFP dual reporter) amounted to 45.7%.
To “RNA1{r(A)p.r(A)p.r(A)p.r(C)p.r(U)p.r(G)p.r(A)p.r(G)p.r(G)p.r(G)p.r(A)p.r(A)p.r(A)p.r(U)p.r(G)p.r(C)p.r(A)p.r(G)p.r(A)p.d(T)p.d(T)}|RNA2{r(U)p.r(C)p.r(U)p.r(G)p.r(C)p.r(A)p.r(U)p.r(U)p.r(U)p.r(C)p.r(C)p.r(C)p.r(U)p.r(C)p.r(A)p.r(G)p.r(U)p.r(U)p.r(U)p.d(G)p.d(T)}$$$RNA1{StrandType:ss}|RNA2{StrandType:as}$” belongs 116%; to “RNA1{r(A)p.r(A)p.r(A)p.r(U)p.r(U)p.r(U)p.r(U)p.r(A)p.r(C)p.r(C)p.r(U)p.r(U)p.r(C)p.r(A)p.r(C)p.r(G)p.r(A)p.r(C)p.r(U)p.d(T)p.d(T)}|RNA2{r(A)p.r(G)p.r(U)p.r(C)p.r(G)p.r(U)p.r(G)p.r(A)p.r(A)p.r(G)p.r(G)p.r(U)p.r(A)p.r(A)p.r(A)p.r(A)p.r(U)p.r(U)p.r(U)p.d(C)p.d(C)}$$$RNA1{StrandType:ss}|RNA2{StrandType:as}$”, 74.4%.
As for “RNA1{r(A)p.r(A)p.r(C)p.r(A)p.r(A)p.r(A)p.r(G)p.r(A)p.r(A)p.r(G)p.r(G)p.r(C)p.r(C)p.r(A)p.r(C)p.r(C)p.r(A)p.r(G)p.r(U)p.d(T)p.d(T)}|RNA2{r(A)p.r(C)p.r(U)p.r(G)p.r(G)p.r(U)p.r(G)p.r(G)p.r(C)p.r(C)p.r(U)p.r(U)p.r(C)p.r(U)p.r(U)p.r(U)p.r(G)p.r(U)p.r(U)p.d(T)p.d(T)}$$$RNA1{StrandType:ss}|RNA2{StrandType:as}$”, the normalised inhibition (eCFP-eYFP dual reporter) was determined as 87.1%.
The same measure for “RNA1{r(A)p.r(A)p.r(C)p.r(U)p.r(U)p.r(C)p.r(C)p.r(C)p.r(A)p.r(U)p.r(U)p.r(U)p.r(G)p.r(A)p.r(U)p.r(G)p.r(G)p.r(G)p.r(C)p.d(T)p.d(T)}|RNA2{r(G)p.r(C)p.r(C)p.r(C)p.r(A)p.r(U)p.r(C)p.r(A)p.r(A)p.r(A)p.r(U)p.r(G)p.r(G)p.r(G)p.r(A)p.r(A)p.r(G)p.r(U)p.r(U)p.d(G)p.d(T)}$$$RNA1{StrandType:ss}|RNA2{StrandType:as}$”: 0.2%; for “RNA1{r(A)p.r(A)p.r(G)p.r(C)p.r(C)p.r(C)p.r(A)p.r(G)p.r(G)p.r(U)p.r(G)p.r(U)p.r(G)p.r(G)p.r(A)p.r(G)p.r(U)p.r(G)p.r(C)p.d(T)p.d(T)}|RNA2{r(G)p.r(C)p.r(A)p.r(C)p.r(U)p.r(C)p.r(C)p.r(A)p.r(C)p.r(A)p.r(C)p.r(C)p.r(U)p.r(G)p.r(G)p.r(G)p.r(C)p.r(U)p.r(U)p.d(C)p.d(T)}$$$RNA1{StrandType:ss}|RNA2{StrandType:as}$”: 47.5%.
With “RNA1{r(A)p.r(A)p.r(G)p.r(G)p.r(A)p.r(U)p.r(G)p.r(A)p.r(G)p.r(U)p.r(A)p.r(C)p.r(U)p.r(G)p.r(G)p.r(A)p.r(C)p.r(G)p.r(G)p.d(T)p.d(T)}|RNA2{r(C)p.r(C)p.r(G)p.r(U)p.r(C)p.r(C)p.r(A)p.r(G)p.r(U)p.r(A)p.r(C)p.r(U)p.r(C)p.r(A)p.r(U)p.r(C)p.r(C)p.r(U)p.r(U)p.d(G)p.d(T)}$$$RNA1{StrandType:ss}|RNA2{StrandType:as}$”, the normalised inhibition (eCFP-eYFP dual reporter) is 75.8%.
On to “RNA1{r(A)p.r(A)p.r(G)p.r(G)p.r(C)p.r(C)p.r(A)p.r(C)p.r(C)p.r(A)p.r(G)p.r(U)p.r(G)p.r(C)p.r(A)p.r(G)p.r(U)p.r(G)p.r(G)p.d(T)p.d(T)}|RNA2{r(C)p.r(C)p.r(A)p.r(C)p.r(U)p.r(G)p.r(C)p.r(A)p.r(C)p.r(U)p.r(G)p.r(G)p.r(U)p.r(G)p.r(G)p.r(C)p.r(C)p.r(U)p.r(U)p.d(C)p.d(T)}$$$RNA1{StrandType:ss}|RNA2{StrandType:as}$”, for which the normalised inhibition (eCFP-eYFP dual reporter) came to 22.3%.
The same measure for “RNA1{r(A)p.r(A)p.r(G)p.r(U)p.r(G)p.r(A)p.r(C)p.r(C)p.r(G)p.r(C)p.r(A)p.r(C)p.r(U)p.r(U)p.r(C)p.r(A)p.r(G)p.r(U)p.r(G)p.d(T)p.d(T)}|RNA2{r(C)p.r(A)p.r(C)p.r(U)p.r(G)p.r(A)p.r(A)p.r(G)p.r(U)p.r(G)p.r(C)p.r(G)p.r(G)p.r(U)p.r(C)p.r(A)p.r(C)p.r(U)p.r(U)p.d(C)p.d(T)}$$$RNA1{StrandType:ss}|RNA2{StrandType:as}$”: 79.7%; for “RNA1{r(A)p.r(A)p.r(G)p.r(U)p.r(U)p.r(C)p.r(U)p.r(U)p.r(C)p.r(G)p.r(G)p.r(U)p.r(U)p.r(U)p.r(G)p.r(C)p.r(C)p.r(G)p.r(G)p.d(T)p.d(T)}|RNA2{r(C)p.r(C)p.r(G)p.r(G)p.r(C)p.r(A)p.r(A)p.r(A)p.r(C)p.r(C)p.r(G)p.r(A)p.r(A)p.r(G)p.r(A)p.r(A)p.r(C)p.r(U)p.r(U)p.d(C)p.d(T)}$$$RNA1{StrandType:ss}|RNA2{StrandType:as}$”: 1.8%.
The same measure for “RNA1{r(A)p.r(A)p.r(U)p.r(G)p.r(C)p.r(A)p.r(G)p.r(A)p.r(A)p.r(G)p.r(C)p.r(C)p.r(C)p.r(A)p.r(G)p.r(G)p.r(U)p.r(G)p.r(U)p.d(T)p.d(T)}|RNA2{r(A)p.r(C)p.r(A)p.r(C)p.r(C)p.r(U)p.r(G)p.r(G)p.r(G)p.r(C)p.r(U)p.r(U)p.r(C)p.r(U)p.r(G)p.r(C)p.r(A)p.r(U)p.r(U)p.d(A)p.d(T)}$$$RNA1{StrandType:ss}|RNA2{StrandType:as}$”: 86.1%; for “RNA1{r(A)p.r(A)p.r(U)p.r(U)p.r(U)p.r(U)p.r(A)p.r(C)p.r(C)p.r(U)p.r(U)p.r(C)p.r(A)p.r(C)p.r(G)p.r(A)p.r(C)p.r(U)p.r(C)p.d(T)p.d(T)}|RNA2{r(G)p.r(A)p.r(G)p.r(U)p.r(C)p.r(G)p.r(U)p.r(G)p.r(A)p.r(A)p.r(G)p.r(G)p.r(U)p.r(A)p.r(A)p.r(A)p.r(A)p.r(U)p.r(U)p.d(T)p.d(C)}$$$RNA1{StrandType:ss}|RNA2{StrandType:as}$”: 76.1%; for “RNA1{r(A)p.r(C)p.r(A)p.r(G)p.r(G)p.r(C)p.r(G)p.r(C)p.r(A)p.r(G)p.r(A)p.r(A)p.r(U)p.r(U)p.r(A)p.r(U)p.r(C)p.r(U)p.r(U)p.d(T)p.d(T)}|RNA2{r(A)p.r(A)p.r(G)p.r(A)p.r(U)p.r(A)p.r(A)p.r(U)p.r(U)p.r(C)p.r(U)p.r(G)p.r(C)p.r(G)p.r(C)p.r(C)p.r(U)p.r(G)p.r(U)p.d(T)p.d(C)}$$$RNA1{StrandType:ss}|RNA2{StrandType:as}$”: 75.6%.
The same measure for “RNA1{r(A)p.r(C)p.r(A)p.r(G)p.r(U)p.r(C)p.r(C)p.r(U)p.r(A)p.r(A)p.r(G)p.r(U)p.r(G)p.r(G)p.r(C)p.r(A)p.r(U)p.r(U)p.r(C)p.d(T)p.d(T)}|RNA2{r(G)p.r(A)p.r(A)p.r(U)p.r(G)p.r(C)p.r(C)p.r(A)p.r(C)p.r(U)p.r(U)p.r(A)p.r(G)p.r(G)p.r(A)p.r(C)p.r(U)p.r(G)p.r(U)p.d(T)p.d(T)}$$$RNA1{StrandType:ss}|RNA2{StrandType:as}$”: 65.7%.
On to “RNA1{r(A)p.r(C)p.r(C)p.r(G)p.r(G)p.r(G)p.r(G)p.r(C)p.r(C)p.r(A)p.r(G)p.r(G)p.r(C)p.r(C)p.r(U)p.r(C)p.r(G)p.r(G)p.r(C)p.d(T)p.d(T)}|RNA2{r(G)p.r(C)p.r(C)p.r(G)p.r(A)p.r(G)p.r(G)p.r(C)p.r(C)p.r(U)p.r(G)p.r(G)p.r(C)p.r(C)p.r(C)p.r(C)p.r(G)p.r(G)p.r(U)p.d(G)p.d(C)}$$$RNA1{StrandType:ss}|RNA2{StrandType:as}$”, for which the normalised inhibition (eCFP-eYFP dual reporter) was 11%.
Take “RNA1{r(A)p.r(C)p.r(U)p.r(C)p.r(A)p.r(G)p.r(G)p.r(C)p.r(G)p.r(U)p.r(G)p.r(A)p.r(A)p.r(C)p.r(U)p.r(U)p.r(C)p.r(C)p.r(U)p.d(T)p.d(T)}|RNA2{r(A)p.r(G)p.r(G)p.r(A)p.r(A)p.r(G)p.r(U)p.r(U)p.r(C)p.r(A)p.r(C)p.r(G)p.r(C)p.r(C)p.r(U)p.r(G)p.r(A)p.r(G)p.r(U)p.d(C)p.d(C)}$$$RNA1{StrandType:ss}|RNA2{StrandType:as}$”: the normalised inhibition (eCFP-eYFP dual reporter) turned out to be 73.1%.
As to “RNA1{r(A)p.r(C)p.r(U)p.r(C)p.r(U)p.r(C)p.r(U)p.r(G)p.r(G)p.r(G)p.r(U)p.r(C)p.r(U)p.r(G)p.r(G)p.r(G)p.r(U)p.r(C)p.r(A)p.d(T)p.d(T)}|RNA2{r(U)p.r(G)p.r(A)p.r(C)p.r(C)p.r(C)p.r(A)p.r(G)p.r(A)p.r(C)p.r(C)p.r(C)p.r(A)p.r(G)p.r(A)p.r(G)p.r(A)p.r(G)p.r(U)p.d(G)p.d(G)}$$$RNA1{StrandType:ss}|RNA2{StrandType:as}$”, the normalised inhibition (eCFP-eYFP dual reporter) came to 61.8%.
To “RNA1{r(A)p.r(C)p.r(U)p.r(C)p.r(U)p.r(U)p.r(C)p.r(U)p.r(G)p.r(U)p.r(U)p.r(C)p.r(C)p.r(C)p.r(A)p.r(G)p.r(U)p.r(U)p.r(C)p.d(T)p.d(T)}|RNA2{r(G)p.r(A)p.r(A)p.r(C)p.r(U)p.r(G)p.r(G)p.r(G)p.r(A)p.r(A)p.r(C)p.r(A)p.r(G)p.r(A)p.r(A)p.r(G)p.r(A)p.r(G)p.r(U)p.d(G)p.d(A)}$$$RNA1{StrandType:ss}|RNA2{StrandType:as}$” belongs 81.4%; to “RNA1{r(A)p.r(C)p.r(U)p.r(G)p.r(G)p.r(A)p.r(C)p.r(G)p.r(G)p.r(A)p.r(U)p.r(G)p.r(G)p.r(U)p.r(G)p.r(A)p.r(G)p.r(G)p.r(A)p.d(T)p.d(T)}|RNA2{r(U)p.r(C)p.r(C)p.r(U)p.r(C)p.r(A)p.r(C)p.r(C)p.r(A)p.r(U)p.r(C)p.r(C)p.r(G)p.r(U)p.r(C)p.r(C)p.r(A)p.r(G)p.r(U)p.d(A)p.d(C)}$$$RNA1{StrandType:ss}|RNA2{StrandType:as}$”, 46.5%; to “RNA1{r(A)p.r(C)p.r(U)p.r(U)p.r(C)p.r(A)p.r(G)p.r(U)p.r(C)p.r(U)p.r(U)p.r(A)p.r(C)p.r(A)p.r(A)p.r(A)p.r(G)p.r(G)p.r(A)p.d(T)p.d(T)}|RNA2{r(U)p.r(C)p.r(C)p.r(U)p.r(U)p.r(U)p.r(G)p.r(U)p.r(A)p.r(A)p.r(G)p.r(A)p.r(C)p.r(U)p.r(G)p.r(A)p.r(A)p.r(G)p.r(U)p.d(C)p.d(T)}$$$RNA1{StrandType:ss}|RNA2{StrandType:as}$”, 112%.

Values taken from the OligoGym collection.
